# Assay results from ChEMBL document CHEMBL2021829, “Design, Synthesis and Biological Evaluation of a Series of Novel Axl Kinase Inhibitors” (ACS Med Chem Lett, 2011).
# How the values were obtained:
# [1] = biological target: T1, Tyrosine-protein kinase receptor UFO (Homo sapiens, UniProt P30530)
# T1 sequence (P30530 whole entry): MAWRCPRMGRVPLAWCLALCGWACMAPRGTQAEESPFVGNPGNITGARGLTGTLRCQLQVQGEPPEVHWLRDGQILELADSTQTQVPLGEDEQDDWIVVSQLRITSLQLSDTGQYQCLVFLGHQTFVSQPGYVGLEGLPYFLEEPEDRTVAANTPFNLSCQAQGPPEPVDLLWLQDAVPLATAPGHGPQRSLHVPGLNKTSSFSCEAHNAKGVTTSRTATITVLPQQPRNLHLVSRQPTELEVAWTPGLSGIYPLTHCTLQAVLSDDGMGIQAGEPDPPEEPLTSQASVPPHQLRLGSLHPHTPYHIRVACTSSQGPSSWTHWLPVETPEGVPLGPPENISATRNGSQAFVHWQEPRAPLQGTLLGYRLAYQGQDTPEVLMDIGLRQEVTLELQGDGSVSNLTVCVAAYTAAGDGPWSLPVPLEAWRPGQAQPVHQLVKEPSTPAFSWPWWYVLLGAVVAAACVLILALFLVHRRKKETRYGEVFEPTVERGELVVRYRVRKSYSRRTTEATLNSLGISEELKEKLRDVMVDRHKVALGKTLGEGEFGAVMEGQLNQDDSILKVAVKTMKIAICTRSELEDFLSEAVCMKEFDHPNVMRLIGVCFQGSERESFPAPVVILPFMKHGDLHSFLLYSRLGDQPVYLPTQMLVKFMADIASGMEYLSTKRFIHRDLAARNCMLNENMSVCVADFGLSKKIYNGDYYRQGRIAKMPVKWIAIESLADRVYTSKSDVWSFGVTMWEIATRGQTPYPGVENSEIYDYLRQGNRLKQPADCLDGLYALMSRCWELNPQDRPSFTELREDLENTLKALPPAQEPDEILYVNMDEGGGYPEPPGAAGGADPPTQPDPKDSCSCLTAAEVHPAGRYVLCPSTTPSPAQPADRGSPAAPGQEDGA
# Description: Inhibition of human recombinant His-tagged AXL kinase using fluorescein-labelled poly-GT as substrate after 60 mins by TR-FRET analysis
# PSN1 = assay: Cytotoxicity against human PSN1 cells after 96 hrs by ATP-lite luminescence assay; assay type: functional, cell-based; settings: PSN1, 96 h
# [2] = biological target: T2, Tyrosine-protein kinase Mer (Homo sapiens, UniProt Q12866); assay: Inhibition of Mer kinase
# T2 sequence (Q12866 whole entry): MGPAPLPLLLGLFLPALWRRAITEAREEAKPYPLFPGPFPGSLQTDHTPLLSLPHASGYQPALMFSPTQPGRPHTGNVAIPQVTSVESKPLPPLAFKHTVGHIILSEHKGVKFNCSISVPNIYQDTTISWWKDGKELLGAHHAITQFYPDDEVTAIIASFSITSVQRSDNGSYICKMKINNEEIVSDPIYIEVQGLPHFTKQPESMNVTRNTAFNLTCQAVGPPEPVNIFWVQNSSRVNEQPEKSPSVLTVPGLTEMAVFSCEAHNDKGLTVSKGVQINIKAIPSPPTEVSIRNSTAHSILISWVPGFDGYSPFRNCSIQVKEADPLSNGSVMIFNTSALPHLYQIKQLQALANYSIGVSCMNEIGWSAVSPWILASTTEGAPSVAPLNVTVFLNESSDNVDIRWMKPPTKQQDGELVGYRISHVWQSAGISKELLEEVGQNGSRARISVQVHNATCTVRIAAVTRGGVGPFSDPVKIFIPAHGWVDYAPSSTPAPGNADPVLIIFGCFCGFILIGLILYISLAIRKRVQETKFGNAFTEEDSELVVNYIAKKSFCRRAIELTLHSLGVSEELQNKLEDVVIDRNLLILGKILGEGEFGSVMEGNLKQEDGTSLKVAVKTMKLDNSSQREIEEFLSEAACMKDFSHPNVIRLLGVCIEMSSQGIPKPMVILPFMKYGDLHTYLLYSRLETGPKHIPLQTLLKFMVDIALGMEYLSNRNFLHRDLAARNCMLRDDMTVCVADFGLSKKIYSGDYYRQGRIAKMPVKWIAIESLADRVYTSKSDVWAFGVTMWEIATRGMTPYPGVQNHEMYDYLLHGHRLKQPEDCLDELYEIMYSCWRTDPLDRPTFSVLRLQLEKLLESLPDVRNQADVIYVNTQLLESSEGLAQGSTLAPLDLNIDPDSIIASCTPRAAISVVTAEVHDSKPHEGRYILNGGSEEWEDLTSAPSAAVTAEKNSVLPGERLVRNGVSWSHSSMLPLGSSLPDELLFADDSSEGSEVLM
# Aurora kinase A = biological target: T3, Aurora kinase A (Homo sapiens, UniProt O14965); assay: Inhibition of Aurora A
# T3 sequence (O14965 whole entry): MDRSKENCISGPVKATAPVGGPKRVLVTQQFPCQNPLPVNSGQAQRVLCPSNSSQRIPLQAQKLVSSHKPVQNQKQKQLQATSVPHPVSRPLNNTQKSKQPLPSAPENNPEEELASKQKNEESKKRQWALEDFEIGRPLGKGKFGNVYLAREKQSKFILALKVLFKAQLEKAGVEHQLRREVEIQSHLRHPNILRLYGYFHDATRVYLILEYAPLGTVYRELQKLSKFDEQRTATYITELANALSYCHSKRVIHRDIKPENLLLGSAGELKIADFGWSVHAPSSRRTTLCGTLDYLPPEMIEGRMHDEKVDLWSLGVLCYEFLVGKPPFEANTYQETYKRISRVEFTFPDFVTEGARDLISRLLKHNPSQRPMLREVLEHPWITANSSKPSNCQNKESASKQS
# Aurora kinase B = Aurora kinase B (Homo sapiens, UniProt Q96GD4); assay: Inhibition of Aurora B
# Chain of Aurora kinase B (Q96GD4 whole entry): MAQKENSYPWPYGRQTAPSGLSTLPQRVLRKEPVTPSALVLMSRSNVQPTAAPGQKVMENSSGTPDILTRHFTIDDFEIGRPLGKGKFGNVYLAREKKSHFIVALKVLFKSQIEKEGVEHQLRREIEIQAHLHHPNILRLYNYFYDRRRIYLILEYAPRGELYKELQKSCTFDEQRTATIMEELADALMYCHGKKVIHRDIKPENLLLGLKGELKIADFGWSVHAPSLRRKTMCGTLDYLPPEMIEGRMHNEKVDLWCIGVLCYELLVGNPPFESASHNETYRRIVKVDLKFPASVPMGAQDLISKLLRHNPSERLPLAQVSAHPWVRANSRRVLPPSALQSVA
SMILES,IC50 [1],IC50 (PSN1),other results
CN1CCN(Cc2ccc(Nc3ncc(Cl)c(-c4ccc(F)cc4S(=O)(=O)N4CCCC4)n3)cc2)CC1,91 nM,192 nM,–
CC(C)n1cnc2c(Nc3cccc(Cl)c3)nc(NCCO)nc21,–,–,IC50 [2]: 11300 nM
CN1CCN(Cc2ccc(Nc3ncc(Cl)c(Nc4ccccc4S(=O)(=O)N4CCCC4)n3)cc2)CC1,19 nM,2 nM,–
Cc1cnc(Nc2ccc(N3CCN(C)CC3)c(F)c2)nc1-c1ccc(F)cc1,6100 nM,–,–
CN1CCN(Cc2ccc(Nc3ncc(Cl)c(Nc4ccc(F)cc4S(=O)(=O)N4CCCC4)n3)cc2)CC1,–,9 nM,–
CN1CCN(Cc2ccc(Nc3ncc(Cl)c(Nc4ccccc4C(=O)N(C)C)n3)cc2)CC1,–,70 nM,–
CN1CCN(Cc2ccc(Nc3ncc(C(F)(F)F)c(Nc4ccccc4C(=O)N(C)C)n3)cc2)CC1,> 10000 nM,–,–
CN1CCN(c2ccc(Nc3ncc(Cl)c(Nc4ccccc4S(=O)(=O)N(C)C)n3)cc2)CC1,1730 nM,–,–
CN1CCN(Cc2ccc(Nc3ncc(Cl)c(Nc4ccccc4C(=O)NC4CC4)n3)cc2)CC1,–,64 nM,–
CN1CCN(Cc2ccc(Nc3ncc(C4CC4)c(-c4ccc(F)c(Cl)c4)n3)cc2)CC1,3400 nM,–,–
CN1CCN(Cc2ccc(Nc3ncc(Cl)c(-c4ccc(F)cc4S(=O)(=O)N(C)C)n3)cc2)CC1,82 nM,–,–
Cc1cnc(Nc2ccc(N3CCN(C)CC3)c(F)c2)nc1-c1ccc(F)c(Cl)c1,2800 nM,–,–
CN1CCN(Cc2ccc(Nc3ncc(Cl)c(Nc4ccccc4C(=O)N4CCCC4)n3)cc2)CC1,–,21 nM,–
CN1CCN(Cc2ccc(Nc3ncc(Cl)c(Nc4ccccc4S(=O)(=O)N(C)C)n3)cc2)CC1 [DUBERMATINIB],–,–,IC50 (Aurora kinase A): 3 nM; IC50 (Aurora kinase B): 12.4 nM
Cc1cnc(Nc2ccc(OCCN3CCCCC3)cc2)nc1-c1ccc(F)c(Cl)c1,1630 nM,–,–
